Test results as given in patent US9334267B2, “RAF inhibitor compounds” (Deciphera Pharmaceuticals, LLC, priority 2012, dated 2016).
Read-outs that look alike come from different tables or passages of the source.

Assays:
[1] = test system: phospho-ERK in HCT-116 cells; experiment: HCT-116 cell pERK assay (AlphaScreen SureFire); assay type: cell-based; conditions: B-Raf wild type, K-Ras mutation
Experimental: Examples of Formula I are tested against HCT-116 cells harboring wild type B-Raf and K-Ras mutation. The phospho-ERK activities are evaluated as described below.
HCT-116 cells (catalog #CCL-247) are obtained from the American Type Culture Collection (ATCC, Manassas, Va.). Briefly, cells are grown in McCoy's 5A supplemented with 10% characterized fetal bovine serum (Invitrogen, Carlsbad, Calif.), and 1% Penicillin/Streptomycin/L-Glutamine at 37 degrees Celsius, 5% CO2, and 95% humidity. Cells are allowed to expand until reaching 75-90% confluency at which point they are subcultured or harvested for assay use. HCT-116 cells suspended in complete media are added to 384-well tissue culture treated plates (3×10^5 cells/mL; 7,500 cells per well). The cells are incubated overnight at 37 degrees Celsius, 5% CO2, and 95% humidity. Next, test compound or DMSO diluted in complete media is added to the wells (0.25% final DMSO concentration). The plates are then incubated for 4 hours at 37 degrees Celsius, 5% CO2, and 95% humidity. Following compound incubation, the cells are lysed at 4° C. for 20 minutes with shaking. Cell lysates are centrifuged and the supernatant is transferred to a new plate. An aliquot of each lysate is transferred to a white 384-well assay plate. Using the AlphaScreen SureFire pERK kit (Perkin-Elmer, Waltham, Mass.), an acceptor bead mixture is added to each well and incubated for 2 h at room temperature in the dark. A donor bead mixture is then added to each well and incubated for 2 h at room temperature in the dark. Plates are read using a Synergy2 plate reader (Biotek, Winooski, Vt.) in Plate Mode with Timing Control. Read: (F)1: excitation: 680/30 nm, emission: Plug. 2: Excitation: Plug, emission: 570/100 nm. Top mirror 635 nm. Data is analyzed using Prism software (Graphpad, San Diego, Calif.) to calculate IC50 values and Excel software (Microsoft, Redmond, Wash.) to calculate stimulation compared to control.

A375res cells [2] = test system: A375res cells
A375res cells [3] = experiment: Proliferation assay in vemurafenib-resistant melanoma cells A375res; conditions: 72 hour proliferation assay

| IC50 shift A375 to A375res (A375res cells [2]) | SMILES | concentrations at which the pERK signal is stimulated [1] | IC50 shift A375 to A375res (A375res cells [3]) |
| --- | --- | --- | --- |
| more than 57 fold | CCCS(=O)(=O)Nc1ccc(F)c(C(=O)c2c[nH]c3ncc(-c4ccc(Cl)cc4)cc23)c1F [vemurafenib, reference compound] | up to 3 uM | – |
| – | CCCS(=O)(=O)Nc1ccc(F)c(C(=O)c2c[nH]c3ncc(Cl)cc23)c1F [PLX4720, reference compound] | – | more than 27 fold |
